Results taken from US20250186405A1, “Compound For Use In Treating Narcolepsy” (Alkermes, Inc., priority 2023, published 2025).

System: subjects with narcolepsy type-2 (NT2)
Experiment: Part 5 POC NT2: treatment-emergent adverse events, single doses, crossover
Conditions: N = 9
Description: Part 5 consisted of a 4-way, 4-period crossover study design in approximately 8 subjects (2 subjects per sequence; minimum of 4 subjects with 1 subject per sequence). Subjects were randomized 1:1:1:1 to 1 of 4 sequences with 4 treatment periods (3 single doses of Compound A and 1 dose of matching placebo), with up to 48 hours of washout between treatments. Treatments were administered under fasted state.
Subjects were randomized to 1 of 4 sequences. […] In each period, subjects were administered a single dose of study drug (either Compound A or placebo) as per the randomization schedule with approximately 240 mL of noncarbonated water following overnight fasting. No food was given for at least 3 hours after dose administration (i.e., fast can be broken after the 3-hour PK time point is collected). Water was allowed ad libitum except for 1 hour before and 1 hour after study drug administration. Safety assessments including AEs, safety ECGs, vital signs, and clinical laboratory tests were conducted, and plasma PK samples were collected. Furthermore, BP and HR were monitored once every hour for 12 hours on the dosing days.
Adverse events (AEs) and serious adverse events (SAEs) were monitored continuously until the completion of the study.
Nine subjects with NT2 were dosed in Part 5 (POC in NT2) in a randomized 4-sequence 4-period cross-over design. Each dose of Compound A or matching placebo was separated by 2 days. A 14-day washout period preceded the treatment period and included discontinuation of narcolepsy medications. All 9 subjects underwent the washout period and received at least one dose of Compound A. All subjects completed all 4-way randomized crossover periods.

CS(=O)(=O)N[C@H]1CCCN2C(=O)COc3ccccc3C3CCC(CC3)OCC12 (stereo partly drawn) [Compound A, N-[(4S,4aR,7α,10α)-1,2,3,4,4a,5,7,8,9,10,16,17-dodecahydro-17-oxo-7,10-ethanopyrido[1,2-d][1,7,4]benzodioxaazacyclotridecin-4-yl]methanesulfonamide]
AE Leading to Study Drug Discontinuation (5 mg single dose): 0 n (%) | Any SAEs (5 mg single dose): 0 n (%) | Any TEAE (5 mg single dose): 3 (33.3) n (%) | Death (5 mg single dose): 0 n (%) | Drug Related TEAE by Preferred Term: Altered state of consciousness (5 mg single dose): 0 n (%) | Drug Related TEAE by Preferred Term: Dizziness (5 mg single dose): 0 n (%) | Drug Related TEAE by Preferred Term: Dizziness postural (5 mg single dose): 0 n (%) | Drug Related TEAE by Preferred Term: Feeling jittery (5 mg single dose): 0 n (%) | Drug Related TEAE by Preferred Term: Headache (5 mg single dose): 0 n (%) | Drug Related TEAE by Preferred Term: Initial insomnia (5 mg single dose): 1 (11.1) n (%) | Drug Related TEAE by Preferred Term: Insomnia (5 mg single dose): 0 n (%) | Drug Related TEAE by Preferred Term: Photophobia (5 mg single dose): 0 n (%) | Drug Related TEAE by Preferred Term: Pollakiuria (5 mg single dose): 0 n (%) | Drug Related TEAE by Preferred Term: Tachycardia (5 mg single dose): 0 n (%) | Drug Related TEAE by Preferred Term: Urinary incontinence (5 mg single dose): 0 n (%) | Subjects with at least one TEAE (5 mg single dose): 3 (33.3) n (%) | Subjects with at least one treatment-related TEAE (5 mg single dose): 1 (11.1) n (%) | TEAE by Highest Relationship: Not Related (5 mg single dose): 2 (22.2) n (%) | TEAE by Highest Relationship: Related (5 mg single dose): 1 (11.1) n (%) | TEAE by Highest Severity: Mild (5 mg single dose): 3 (33.3) n (%) | TEAE by Highest Severity: Moderate (5 mg single dose): 0 n (%) | TEAE by Highest Severity: Severe (5 mg single dose): 0 n (%) | TEAE by Preferred Term: Altered state of consciousness (5 mg single dose): 0 n (%) | TEAE by Preferred Term: Constipation (5 mg single dose): 0 n (%) | TEAE by Preferred Term: Contusion (5 mg single dose): 0 n (%) | TEAE by Preferred Term: Dizziness (5 mg single dose): 0 n (%) | TEAE by Preferred Term: Dizziness postural (5 mg single dose): 0 n (%) | TEAE by Preferred Term: Dry skin (5 mg single dose): 1 (11.1) n (%) | TEAE by Preferred Term: Feeling jittery (5 mg single dose): 0 n (%) | TEAE by Preferred Term: Headache (5 mg single dose): 0 n (%) | TEAE by Preferred Term: Initial insomnia (5 mg single dose): 1 (11.1) n (%) | TEAE by Preferred Term: Insomnia (5 mg single dose): 0 n (%) | TEAE by Preferred Term: Nasal dryness (5 mg single dose): 0 n (%) | TEAE by Preferred Term: Nausea (5 mg single dose): 0 n (%) | TEAE by Preferred Term: Photophobia (5 mg single dose): 0 n (%) | TEAE by Preferred Term: Pollakiuria (5 mg single dose): 0 n (%) | TEAE by Preferred Term: Rash (5 mg single dose): 0 n (%) | TEAE by Preferred Term: Skin lesion (5 mg single dose): 1 (11.1) n (%) | TEAE by Preferred Term: Tachycardia (5 mg single dose): 0 n (%) | TEAE by Preferred Term: Urinary incontinence (5 mg single dose): 0 n (%) | AE Leading to Study Drug Discontinuation (12 mg single dose): 0 n (%) | Any SAEs (12 mg single dose): 0 n (%) | Any TEAE (12 mg single dose): 4 (44.4) n (%) | Death (12 mg single dose): 0 n (%) | Drug Related TEAE by Preferred Term: Altered state of consciousness (12 mg single dose): 0 n (%) | Drug Related TEAE by Preferred Term: Dizziness (12 mg single dose): 0 n (%) | Drug Related TEAE by Preferred Term: Dizziness postural (12 mg single dose): 0 n (%) | Drug Related TEAE by Preferred Term: Feeling jittery (12 mg single dose): 0 n (%) | Drug Related TEAE by Preferred Term: Headache (12 mg single dose): 0 n (%) | Drug Related TEAE by Preferred Term: Initial insomnia (12 mg single dose): 0 n (%) | Drug Related TEAE by Preferred Term: Insomnia (12 mg single dose): 0 n (%) | Drug Related TEAE by Preferred Term: Photophobia (12 mg single dose): 0 n (%) | Drug Related TEAE by Preferred Term: Pollakiuria (12 mg single dose): 1 (1.1) n (%) | Drug Related TEAE by Preferred Term: Tachycardia (12 mg single dose): 0 n (%) | Drug Related TEAE by Preferred Term: Urinary incontinence (12 mg single dose): 0 n (%) | Subjects with at least one TEAE (12 mg single dose): 4 (44.4) n (%) | Subjects with at least one treatment-related TEAE (12 mg single dose): 1 (11.1) n (%) | TEAE by Highest Relationship: Not Related (12 mg single dose): 3 (33.3) n (%) | TEAE by Highest Relationship: Related (12 mg single dose): 1 (11.1) n (%) | TEAE by Highest Severity: Mild (12 mg single dose): 4 (44.4) n (%) | TEAE by Highest Severity: Moderate (12 mg single dose): 0 n (%) | TEAE by Highest Severity: Severe (12 mg single dose): 0 n (%) | TEAE by Preferred Term: Altered state of consciousness (12 mg single dose): 0 n (%) | TEAE by Preferred Term: Constipation (12 mg single dose): 1 (11.1) n (%) | TEAE by Preferred Term: Contusion (12 mg single dose): 0 n (%) | TEAE by Preferred Term: Dizziness (12 mg single dose): 0 n (%) | TEAE by Preferred Term: Dizziness postural (12 mg single dose): 0 n (%) | TEAE by Preferred Term: Dry skin (12 mg single dose): 0 n (%) | TEAE by Preferred Term: Feeling jittery (12 mg single dose): 0 n (%) | TEAE by Preferred Term: Headache (12 mg single dose): 0 n (%) | TEAE by Preferred Term: Initial insomnia (12 mg single dose): 0 n (%) | TEAE by Preferred Term: Insomnia (12 mg single dose): 0 n (%) | TEAE by Preferred Term: Nasal dryness (12 mg single dose): 0 n (%) | TEAE by Preferred Term: Nausea (12 mg single dose): 1 (11.1) n (%) | TEAE by Preferred Term: Photophobia (12 mg single dose): 0 n (%) | TEAE by Preferred Term: Pollakiuria (12 mg single dose): 1 (11.1) n (%) | TEAE by Preferred Term: Rash (12 mg single dose): 1 (11.1) n (%) | TEAE by Preferred Term: Skin lesion (12 mg single dose): 0 n (%) | TEAE by Preferred Term: Tachycardia (12 mg single dose): 0 n (%) | TEAE by Preferred Term: Urinary incontinence (12 mg single dose): 0 n (%) | AE Leading to Study Drug Discontinuation (25 mg single dose): 0 n (%)
